Measured values from US12227514B2, “Crystal forms of thiophene derivatives” (TIANJIN HEMAY PHARMACEUTICAL CO., LTD., priority 2018, dated 2025).

Legend:
Type in all cases: physicochemical
[1] = Pressure stability (tablet press, DSC); conditions: single punch tablet press, tablet diameter 6 mm, hardness 25-30 N
Description: Crystal form I of (S)—N-[5-[1-(3-ethoxy-4-methoxyphenyl)-2-(methylsulfonyl)ethyl]-4,6-dioxo-5,6-dihydro-4H-thieno[3,4-c]pyrrole-1-yl]acetamide was pressed by tablet press machine with single punch. The diameter of the tablet was 6 mm and the hardness was 25-30 N. DSC test was carried out on pressed powder.

[2] = High temperature stability and high temperature and high humidity stability; conditions: for Relevant Substance Contents after 1 Month: storage at 40° C.
Description: High Temperature Stability and High Temperature and High Humidity Stability Crystal form I of (S)—N-[5-[1-(3-ethoxy-4-methoxyphenyl)-2-(methylsulfonyl)ethyl]-4,6-dioxo-5,6-dihydro-4H-thieno[3,4-c]pyrrole-1-yl]acetamide was placed at 40° C. (high temperature) or at 40° C. and Rh=75% (high temperature and high humidity) for 1 month. Relevant substance contents of crystal form I of (S)—N-[5-[1-(3-ethoxy-4-methoxyphenyl)-2-(methylsulfonyl)ethyl]-4,6-dioxo-5,6-dihydro-4H-thieno[3,4-c]pyrrole-1-yl]acetamide were tested after 1 month.

[3] = Dissolution rate in water; conditions: about 25 mg in 900 mL water, 37° C., rotating speed 100/minute
Description: The crystal form I of (S)—N-[5-[1-(3-ethoxy-4-methoxyphenyl)-2-(methylsulfonyl)ethyl]-4,6-dioxo-5,6-dihydro-4H-thieno[3,4-c]pyrrole-1-yl]acetamide prepared according to the process in Example 1 was tested.
About 25 mg of crystal form I of (S)—N-[5-[1-(3-ethoxy-4-methoxyphenyl)-2-(methylsulfonyl)ethyl]-4,6-dioxo-5,6-dihydro-4H-thieno[3,4-c]pyrrole-1-yl]acetamide was added to 900 mL of water. The mixture was stirred at a rotating speed of 100/minute at 37° C. for 90 minutes. The supernatant was filtered and diluted. The concentration of the diluted solution (a mg/mL) was determined by ultraviolet spectrophotometer. The dissolution rate was calculated according to the formula 900a/25×100%.

Illumination stability = test: Illumination stability
Description: Crystal form I of (S)—N-[5-[1-(3-ethoxy-4-methoxyphenyl)-2-(methylsulfonyl)ethyl]-4,6-dioxo-5,6-dihydro-4H-thieno[3,4-c]pyrrole-1-yl]acetamide was placed in a 4500 lux of illumination box for 1 month. Crystal form stability of (S)—N-[5-[1-(3-ethoxy-4-methoxyphenyl)-2-(methylsulfonyl)ethyl]-4,6-dioxo-5,6-dihydro-4H-thieno[3,4-c]pyrrole-1-yl]acetamide was tested after 1 month.

[4] = Moisture absorption stability; conditions: RH=80%
Description: Crystal form I of (S)—N-[5-[1-(3-ethoxy-4-methoxyphenyl)-2-(methylsulfonyl)ethyl]-4,6-dioxo-5,6-dihydro-4H-thieno[3,4-c]pyrrole-1-yl]acetamide was placed in a drier containing saturated ammonium chloride solution (RH=80%) until weight was balanced. The crystal form stability of (S)—N-[5-[1-(3-ethoxy-4-methoxyphenyl)-2-(methylsulfonyl)ethyl]-4,6-dioxo-5,6-dihydro-4H-thieno[3,4-c]pyrrole-1-yl]acetamide was tested after weight was balanced.

Pressure stability (DSC curve of pressed powder compared with FIG. 2) [1]: good stability
Chemical stability under high temperature and high-temperature and high-humidity conditions ([2]; 40° C. or 40° C. and RH 75%, 1 month): good chemical stability
Relevant Substance Contents at Day 0 ([2]; before storage): 0.06%
Relevant Substance Contents after 1 Month [2]: 0.07%
Relevant Substance Contents after 1 Month ([2]; RH = 75%): 0.09%
Dissolution Rate ([3]; time 15 min): 40.0%
Dissolution Rate ([3]; time 30 min): 55.9%
Dissolution Rate ([3]; time 45 min): 65.2%
Dissolution Rate ([3]; time 60 min): 71.4%
Dissolution Rate ([3]; time 75 min): 75.5%
Dissolution Rate ([3]; time 90 min): 78.0%
Relevant Substance Contents after 1 Month (Illumination stability; 4500 lux illumination box): 0.06%
Chemical stability under illumination conditions (Illumination stability; 4500 lux, 1 month): good chemical stability
Relevant Substance Contents at Day 0 (Illumination stability; before illumination): 0.06%
Crystal form stability under high humidity conditions [4]: good crystal form stability
SMILES: CCOc1cc([C@@H](CS(C)(=O)=O)N2C(=O)c3csc(NC(C)=O)c3C2=O)ccc1OC [crystal form I, (S)—N-[5-[1-(3-ethoxy-4-methoxyphenyl)-2-(methylsulfonyl)ethyl]-4,6-dioxo-5,6-dihydro-4H-thieno[3,4-c]pyrrole-1-yl]acetamide]
